Measured values: US10653749B2, “Targeting GIV-GEF-GI signaling for treating diverse diseases” (The Regents of the University of California, priority 2015, dated 2020)
“Also recorded” adds a separate entry of the source.

T1: GST-tagged domains of IRS1 (Rattus norvegicus, UniProt P35570)
T1 construct: GST-tagged IRS1 domains (N: aa 2-516, M: aa 526-859 and C: 900-1235); made in house
T1 sequence (P35570 2-516): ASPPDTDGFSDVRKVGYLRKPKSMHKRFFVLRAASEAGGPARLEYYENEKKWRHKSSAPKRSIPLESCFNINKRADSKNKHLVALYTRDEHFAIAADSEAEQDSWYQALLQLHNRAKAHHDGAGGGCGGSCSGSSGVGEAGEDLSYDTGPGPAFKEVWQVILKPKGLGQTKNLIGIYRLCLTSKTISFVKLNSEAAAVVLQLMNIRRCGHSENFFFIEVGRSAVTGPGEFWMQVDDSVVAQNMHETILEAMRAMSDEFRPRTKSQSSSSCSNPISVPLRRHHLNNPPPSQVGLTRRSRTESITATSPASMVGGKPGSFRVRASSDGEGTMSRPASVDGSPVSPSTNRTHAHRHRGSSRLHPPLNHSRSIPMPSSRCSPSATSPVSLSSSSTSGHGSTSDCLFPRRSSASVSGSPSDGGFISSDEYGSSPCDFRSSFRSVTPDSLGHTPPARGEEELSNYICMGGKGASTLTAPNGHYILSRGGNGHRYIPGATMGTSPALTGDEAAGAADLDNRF

B1: His-GIV-CT: Recombinant His-tagged GIV-CT (aa 1660-1870) expressed from pET28b (protein)
chain: ETLESRHHKIKTGSPGSEVVTLQQFLEESNKLTSVQIKSSSQENLLDEVMKSLSVSSDFLGKDKPVSCGLARSVSGKTPGDFYDRRTTKPEFLRPGPRKTEDTYFISSAGKPTPGTQGKIKLVKESSLSRQSKDSNPYATLPRASSVISTAEGTTRRTSIHDFLTKDSRLPISVDSPPAAADSNTTAASNVDKVQESRNSKSRSREQQSS
modifications: left off: small tags and cut ends
notes: Recombinant His-tagged GIV-CT (aa 1660-1870) expressed from pET28b

Assays:
[1] = system: GIV, IRS1 and Akt phosphorylation; assay: Metabolic insulin signaling in L6 cells by immunoblotting; format: cell-based, rat
Protocol: (§1) Transfection was carried out with GeneJuice (Novagen) for DNA plasmids or Oligofectamine (Invitrogen) for siRNA oligos according to manufacturer's protocols. Silencer negative Control scrambled (Scr) siRNA used as control was purchased from Ambion and the previously validated (Enomoto et al., 2005) GIV siRNA sequence used was custom-ordered from Dharmacon. For TAT-construct transduction, cells were incubated with 300-800 nM of the TAT-proteins for 30 min at 37° C. prior to three washes with PBS and addition of fresh growth media. For assays involving insulin (Novagen) stimulation of TAT-treated cells, such stimulation was carried out 90 min after transduction.
(§2) Unless otherwise indicated, serum starvation of cells for use in experiments involving insulin stimulation was carried out by growing cells overnight in the presence of no serum (i.e., 0% FBS) in the case of Cos7 and L6 cells, or in the presence of 0.2% FBS in the case of HeLa cells. To induce IR, cells were pre-treated with Sodium Palmitate (PA; Sigma-Aldrich) (0.5 mM, stock solution at 5 mM/5% FFA-free BSA in ethanol) or vehicle control (5% FFA-free BSA in ethanol) for 16 h. To reverse IR with TZDs, cells were treated with 50 μM Pioglitazone (Pio) (Sigma-Aldrich) or DMSO (vehicle control) for 18 h prior to stimulation with 100 nM insulin. Treatment with PKCθ pseudo-substrate inhibitor (Santa Cruz Biotechnologies) was performed at 10 μM for 16 h.
Protein samples for immunoblotting were run on SDS/PAGE gels and transferred onto PVDF membranes (Millipore). Membranes were blocked with PBS containing 5% non-fat milk (or with 5% BSA when probing for phosphorylated proteins) before incubation with primary antibodies. GIV was detected using rabbit anti-GIV coiled-coil (Millipore) (1:500); GIV-CT (Santa Cruz Biotechnologies) (1:500); phospho-Tyr1764-GIV (1:500) and phospho-Ser1689-GIV (21st Century Biochemicals) (1:250) antibodies. Other antibodies used in this work include rabbit polyclonal antibodies against Gαi3 (1:333), pan-GP (1:250) and phospho-IRS1 (1:500) from Santa Cruz Biotechnologies; and phospho-Akt (1:250); total Akt (1:250); phospho-ERK (1:250); phospho-AS160 (1:250); total InsRβ (1:500) and total IRS1 (1:500) from Cell signaling. Mouse monoclonal Abs against phospho-InsRβ (1:250), His (1:1000), β-tubulin (1:1000), GFP (1:500) from Santa Cruz Biotechnologies, and control IgG (Bio-Rad Laboratories) were commercially obtained. Goat anti-rabbit and goat anti-mouse Alexa Fluor 680 or IRDye 800 F(ab′)2 secondary antibodies were purchased from Li-Cor Biosciences. Images were processed with ImageJ software (NIH) and assembled as figure panels using Photoshop and Illustrator software (Adobe).

[2] = system: L6 myotubes; assay: Fluorometric 2-deoxyglucose uptake assay after insulin stimulation; format: cell-based, rat
Protocol: as §1, §2
Glucose uptake assays were performed without the use of radioisotopes as described previously (Yamamoto et al., 2006). HeLa and L6 cells grown in 6-well plates were stimulated with insulin in KRH Buffer [50 mM HEPES, 137 mM NaCl, 4.7 mM KCl, 1.85 mM CaCl2, 1.3 mM MgSO4, and 0.1% (w/v) BSA-FFA free, pH 7.4]. Cells were incubated with 1 mM 2-deoxyglucose (2-DG) for 20 min, washed, and subsequently lysed with 0.1 N NaOH. The lysates were transferred into eppendorf tubes and samples were incubated in a water bath maintained at 80° C. for 45 min to degrade endogenous NAD(P)H and NAD(P)^+. An equal volume each of 0.1 N HCl and Triethanolamine (200 mM TEA, pH 8.1) buffer were added to each tube. Samples were subsequently mixed with assay solution [50 mM TEA, 0.02% BSA-FFA free, 10 μM NAD(P)^+, 0.2 U/ml Diaphorase, 6 nM Resazurin sodium, 15 U/ml G6PDH (Santa Cruz Biotechnologies)] and incubated at 37° C. for 90 min. Fluorescence intensity (λex=550 nM, λem=590 nM) was determined using a Tecan Inifinite M1000 PRO and normalized to total protein, as determined using BCA assay (Thermo Scientific).

[3] = system: GIV binding to GST-Gαi3 [preloaded with GDP]; assay: GST-Gαi3 pulldown of GIV from lysates of PA-treated L6 myoblasts; details: L6 treated with PA 0.5 mM, 16 h
Protocol: (§3) Purified GST-Gαi3, GST-tagged IRS1 domains or GST alone were immobilized on glutathione-Sepharose beads (GE Healthcare) for 1 h at room temperature as described before (Garcia-Marcos et al., 2012; Ghosh et al., 2010; Ghosh et al., 2008; Lin et al., 2011). L6 lysates or His-GIV CT protein were added to each tube, and binding reactions were carried out for 4 h at 4° C. with constant tumbling in binding buffer [50 mM Tris-HCl (pH 7.4), 100 mM NaCl, 0.4% (v:v) Nonidet P-40, 10 mM MgCl2, 5 mM EDTA, 2 mM DTT, protease inhibitor mixture]. Beads were washed (4×) with 1 mL of wash buffer [4.3 mM Na2HPO4, 1.4 mM KH2PO4 (pH 7.4), 137 mM NaCl, 2.7 mM KCl, 0.1% (v:v) Tween 20, 10 mM MgCl2, 5 mM EDTA, 2 mM DTT] and bound complexes were eluted by boiling in Laemmli's sample buffer. When GST-Gαi3 was used in the assay, both binding buffer and washing buffer were supplemented with 30 μM GDP and bound proteins were eluted by incubating at 37° C.

[4] = target: T1, GST-tagged domains of IRS1; assay: Pulldown of recombinant His-GIV-CT with GST-tagged IRS1 domains; format: binding; details: recombinant proteins
Protocol: as §3

Row | GIV's ability to bind Gi (Gαi3) [3] | Molecule | phosphorylation of GIV at Y1764 ([1]; L6 cells treated with PA) | phosphorylation of GIV at S1689 ([1]; L6 cells treated with PA (0.5 mM, 16 h)) | induction of IR (glucose-uptake response to insulin) ([2]; L6-GIV-SA cells (S1689A)) | induction of IR (glucose-uptake response to insulin) ([2]; L6-GIV-WT cells) | binding to IRS1 domains [4]
1 | reduced; also recorded: loss of binding | CCCCCCCCCCCCCCCC(=O)[O-].[Na+] [PA, Sodium Palmitate, reference compound] | suppressed | enhanced | resistant to PA | induced IR | –
2 | – | B1 | – | – | – | – | specifically bound the N-terminus of IRS1
